For assay [1], the target named is rat TAAR1 (Rattus norvegicus (Rat), UniProt Q923Y9). Kind of assay: Radioligand binding assay on rat TAAR1. The settings on record: rat TAAR1, HEK-293 membranes; second value of the mouse/rat pair. On the procedure: (§1) Construction of TAAR Expression Plasmids and Stably Transfected Cell Lines
(§2) For the construction of expression plasmids the coding sequences of human, rat and mouse TAAR 1 were amplified from genomic DNA essentially as described by Lindemann et al..
(§3) The Expand High Fidelity PCR System (Roche Diagnostics) was used with 1.5 mM Mg^2+ and purified PCR products were cloned into pCR2.1-TOPO cloning vector (Invitrogen) following the instructions of the manufacturer. PCR products were subcloned into the pIRESneo2 vector (BD Clontech, Palo Alto, Calif.), and expression vectors were sequence verified before introduction in cell lines.
(§4) HEK293 cells (ATCC # CRL-1573) were cultured essentially as described by Lindemann et al. (2005). For the generation of stably transfected cell lines HEK293 cells were transfected with the pIRESneo2 expression plasmids containing the TAAR coding sequences (described above) with Lipofectamine 2000 (Invitrogen) according to the instructions of the manufacturer, and 24 hrs post transfection the culture medium was supplemented with 1 mg/ml G418 (Sigma, Buchs, Switzerland). After a culture period of about 10 d clones were isolated, expanded and tested for responsiveness to trace amines (all compounds purchased from Sigma) with the cAMP Biotrak Enzyme immunoassay (EIA) System (Amersham) following the non-acetylation EIA procedure provided by the manufacturer.
Radioligand Binding Assay on Rat TAAR1
(§5) Membrane Preparation and Radioligand Binding.
(§6) HEK-293 cells stably expressing rat TAAR1 were maintained at 37° C. and 5% CO2 in DMEM high glucose medium, containing fetal calf serum (10%, heat inactivated for 30 min at 56° C.), penicillin/streptomycin (1%), and 375 μg/ml geneticin (Gibco). Cells were released from culture flasks using trypsin/EDTA, harvested, washed twice with ice-cold PBS (without Ca^2+ and Mg^2+), pelleted at 1,000 rpm for 5 min at 4° C., frozen and stored at −80° C. Frozen pellets were suspended in 20 ml HEPES-NaOH (20 mM, pH 7.4) containing 10 mM EDTA and homogenized with a Polytron (PT 6000, Kinematica) at 14,000 rpm for 20 s. The homogenate was centrifuged at 48,000×g for 30 min at 4° C. Subsequently, the supernatant was removed and discarded, and the pellet resuspended in 20 ml HEPES-NaOH (20 mM, pH 7.4) containing 0.1 mM EDTA using the Polytron (20 s at 14,000 rpm). This procedure was repeated and the final pellet resuspended in HEPES-NaOH containing 0.1 mM EDTA and homogenized using the Polytron. Typically, aliquots of 2 ml membrane portions were stored at −80° C. With each new membrane batch the dissociation constant (Kd) was determined via a saturation curve. […] Nonspecific binding was defined as the amount of [H]-(S)-4-[(ethyl-phenyl-amino)-methyl]-4,5-dihydro-oxazol-2-ylamine bound in the presence of 10 μM unlabeled ligand. All compounds were tested at a broad range of concentrations (10 μM to 10 μM) in duplicates. […] The 96 deep well plates were incubated for 1 hr at 4° C. Incubations were terminated by rapid filtration through Unifilter-96 plates (Packard Instrument Company) and glass filters GF/C (Perkin Elmer) presoaked for 1 hr in polyethylenimine (0.3%) and washed 3 times with 1 ml of cold binding buffer. After addition of 45 μl of Microscint 40 (PerkinElmer) the Unifilter-96 plate was sealed and after 1 hr the radioactivity counted using a TopCount Microplate Scintillation Counter (Packard Instrument Company).

The target of assay [2] is mouse TAAR1 (Mus musculus (Mouse), UniProt Q923Y8). Put plainly: Radioligand binding assay on mouse TAAR1. The settings on record: mouse TAAR1, HEK-293 membranes; first value of the mouse/rat pair. On the procedure: as §1, §2, §3, §4
Sequence of mouse TAAR1 (Q923Y8 whole entry): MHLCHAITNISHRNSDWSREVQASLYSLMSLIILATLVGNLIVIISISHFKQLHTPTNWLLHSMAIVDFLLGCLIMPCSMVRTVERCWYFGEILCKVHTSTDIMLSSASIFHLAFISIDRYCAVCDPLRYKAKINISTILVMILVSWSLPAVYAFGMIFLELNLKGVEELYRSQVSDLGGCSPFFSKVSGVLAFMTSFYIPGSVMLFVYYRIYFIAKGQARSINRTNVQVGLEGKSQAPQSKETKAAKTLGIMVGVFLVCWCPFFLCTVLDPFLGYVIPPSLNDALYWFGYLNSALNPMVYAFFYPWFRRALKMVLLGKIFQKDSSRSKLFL
Radioligand Binding Assay on Mouse TAAR1
as §5
as §6, with “expressing mouse” for “expressing rat”, “of ^3[H]-(S)-4-[(ethyl-phenyl-amino)-methyl]-4,5-dihydro-oxazol-2-ylamine” for “of [H]-(S)-4-[(ethyl-phenyl-amino)-methyl]-4,5-dihydro-oxazol-2-ylamine”, “(10 pM” for “(10 μM”

Sequence of rat TAAR1 (Q923Y9 whole entry): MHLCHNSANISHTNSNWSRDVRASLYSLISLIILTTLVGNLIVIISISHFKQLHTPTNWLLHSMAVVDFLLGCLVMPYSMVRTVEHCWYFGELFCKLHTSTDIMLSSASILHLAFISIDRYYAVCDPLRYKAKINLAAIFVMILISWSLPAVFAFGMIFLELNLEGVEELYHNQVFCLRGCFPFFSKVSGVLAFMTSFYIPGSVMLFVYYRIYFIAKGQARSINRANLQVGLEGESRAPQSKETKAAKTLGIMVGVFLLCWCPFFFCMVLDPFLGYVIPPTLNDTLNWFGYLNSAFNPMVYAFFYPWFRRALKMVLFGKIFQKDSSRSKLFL

Take `O=C(Nc1ccc2c(c1)CCN1CCNC[C@H]21)c1cnc(C(F)(F)F)nc1` [Example 10, N-[(11bS)-2,3,4,6,7,11b-hexahydro-1H-pyrazino[2,1-a]isoquinolin-9-yl]-2-(trifluoromethyl)pyrimidine-5-carboxamide]: the Ki in assay [1] was 0.191 µM; in assay [2], 0.189 µM.
The like results for `FC(F)(F)c1cnc(Nc2ccc3c(c2)CCN2CCNC[C@@H]32)cn1` [Example 7, (11bR)-N-[5-(trifluoromethyl)pyrazin-2-yl]-2,3,4,6,7,11b-hexahydro-1H-pyrazino[2,1-a]isoquinolin-9-amine] were, in that order, 0.0356 µM and 0.0329 µM.
On the same counts, the results for `Cc1nsc(Nc2ccc3c(c2)CCN2CCNC[C@@H]32)n1` [Example 40, (R)-N-(2,3,4,6,7,11b-hexahydro-1H-pyrazino[2,1-a]isoquinolin-9-yl)-3-methyl-1,2,4-thiadiazol-5-amine] are 0.826 µM and 0.202 µM.
On the same counts, the results for `FC(F)(F)c1nc(Cl)cc(Nc2ccc3c(c2)CCN2CCNC[C@@H]32)n1` [Example 21, (11bR)-N-[6-chloro-2-(trifluoromethyl)pyrimidin-4-yl]-2,3,4,6,7,11b-hexahydro-1H-pyrazino[2,1-a]isoquinolin-9-amine] are 0.0134 µM and 0.0264 µM.
Regarding `O=C(Nc1ccc2c(c1)CCN1CCNC[C@@H]21)c1ccc(Cl)cc1` [Example 3, N-[(11bR)-2,3,4,6,7,11b-hexahydro-1H-pyrazino[2,1-a]isoquinolin-9-yl]-4-chloro-benzamide], the results for the Ki in assay [1] and in assay [2] were 0.0562 µM and 0.0096 µM, respectively.
On the same counts, the results for `FC(F)(F)COc1cnc(Nc2ccc3c(c2)CCN2CCNC[C@@H]32)nc1` [Example 13, (R)-N-(5-(2,2,2-trifluoroethoxy)pyrimidin-2-yl)-2,3,4,6,7,11b-hexahydro-1H-pyrazino[2,1-a]isoquinolin-9-amine] are 0.0119 µM and 0.0078 µM.
On to `CCc1n[nH]c(C(=O)Nc2ccc3c(c2)CCN2CCNC[C@@H]32)c1C` [Example 41, (R)-3-ethyl-N-(2,3,4,6,7,11b-hexahydro-1H-pyrazino[2,1-a]isoquinolin-9-yl)-4-methyl-1H-pyrazole-5-carboxamide], for which the results for the Ki in assay [1] and in assay [2] were 0.288 µM and 0.145 µM, respectively.
The like results for `O=C(Nc1ccc2c(c1)CCN1CCNC[C@H]21)c1ccc(Cl)cc1` [Example 8, N-[(11bS)-2,3,4,6,7,11b-hexahydro-1H-pyrazino[2,1-a]isoquinolin-9-yl]-4-chloro-benzamide] were, in that order, 0.0063 µM and 0.0075 µM.
On the same counts, the results for `O=C(Nc1cc2c(cc1F)[C@@H]1CNCCN1CC2)c1ccnc(C(F)(F)F)c1` [Example 16, N-[(11bR)-10-fluoro-2,3,4,6,7,11b-hexahydro-1H-pyrazino[2,1-a]isoquinolin-9-yl]-2-(trifluoromethyl)pyridine-4-carboxamide] are 1.5 µM and 0.175 µM.
The like results for `Cc1ccc2c(c1)CCN1CCNC[C@@H]21` [Example 28, (11bR)-9-methyl-2,3,4,6,7,11b-hexahydro-1H-pyrazino[2,1-a]isoquinoline] were, in that order, 0.421 µM and 0.29 µM.
`Fc1c(Nc2cc(Cl)nc(C(F)(F)F)n2)ccc2c1CCN1CCNC[C@H]21` [Example 31, (11bS)-N-[6-chloro-2-(trifluoromethyl)pyrimidin-4-yl]-8-fluoro-2,3,4,6,7,11b-hexahydro-1H-pyrazino[2,1-a]isoquinolin-9-amine]: the Ki stood at 1.73 µM in assay [1] and 0.835 µM in assay [2].
The like results for `Fc1c(Nc2ncc(C3CC3)cn2)ccc2c1CCN1CCNC[C@@H]21` [Example 33, (11bR)-N-(5-cyclopropylpyrimidin-2-yl)-8-fluoro-2,3,4,6,7,11b-hexahydro-1H-pyrazino[2,1-a]isoquinolin-9-amine] were, in that order, 0.105 µM and 0.0677 µM.
For `COc1cc(Nc2ccc3c(c2)CCN2CCNC[C@@H]32)nc(C(F)(F)F)n1` [Example 18, (11bR)-N-[6-methoxy-2-(trifluoromethyl)pyrimidin-4-yl]-2,3,4,6,7,11b-hexahydro-1H-pyrazino[2,1-a]isoquinolin-9-amine], the Ki in assay [1] stood at 0.0092 µM; in assay [2], 0.0439 µM.
In the case of `Cc1cc(Nc2ccc3c(c2)CCN2CCNC[C@@H]32)nc(C(F)(F)F)n1` [Example 20, (11bR)-N-[6-methyl-2-(trifluoromethyl)pyrimidin-4-yl]-2,3,4,6,7,11b-hexahydro-1H-pyrazino[2,1-a]isoquinolin-9-amine], the results for the Ki in assay [1] and in assay [2] were 0.0112 µM and 0.0364 µM, respectively.
`O=C(Nc1ccc2c(c1)CCN1CCNC[C@@H]21)c1ccnc(C(F)(F)F)c1` [Example 1, N-[(11bR)-2,3,4,6,7,11b-hexahydro-1H-pyrazino[2,1-a]isoquinolin-9-yl]-2-(trifluoromethyl)pyridine-4-carboxamide]: the Ki is 0.199 µM in assay [1] and 0.121 µM in assay [2].
The like results for `CN(C)c1cc(Nc2ccc3c(c2)CCN2CCNC[C@@H]32)nc(C(F)(F)F)n1` [Example 19, N4-[(11bR)-2,3,4,6,7,11b-hexahydro-1H-pyrazino[2,1-a]isoquinolin-9-yl]-N6,N6-dimethyl-2-(trifluoromethyl)pyrimidine-4,6-diamine] were, in that order, 0.0076 µM and 0.0231 µM.
The like results for `FC(F)(F)c1nccc(Nc2ccc3c(c2)CCN2CCNC[C@H]32)n1` [Example 11, (11bS)-N-[2-(trifluoromethyl)pyrimidin-4-yl]-2,3,4,6,7,11b-hexahydro-1H-pyrazino[2,1-a]isoquinolin-9-amine] were, in that order, 0.904 µM and 1.18 µM.
The like results for `FC(F)(F)c1ccnc(Nc2ccc3c(c2)CCN2CCNC[C@@H]32)n1` [Example 24, (11bR)-N-[4-(trifluoromethyl)pyrimidin-2-yl]-2,3,4,6,7,11b-hexahydro-1H-pyrazino[2,1-a]isoquinolin-9-amine] were, in that order, 0.0471 µM and 0.0599 µM.
`Fc1cc2c(cc1Nc1ncc(C(F)(F)F)cn1)CCN1CCNC[C@@H]21` [Example 17, (11bR)-10-fluoro-N-[5-(trifluoromethyl)pyrimidin-2-yl]-2,3,4,6,7,11b-hexahydro-1H-pyrazino[2,1-a]isoquinolin-9-amine]: the values for the Ki in assay [1] and in assay [2] were 0.623 µM and 0.261 µM, respectively.

A word on the Ki: it is the equilibrium dissociation constant of an inhibitor or competing ligand from its target. A lower Ki goes with a stronger hold on the target.

The values are drawn from patent US9828374B2, “Substituted pyrazino[2,2-a]isoquinoline derivatives” (Hoffmann-La Roche Inc., priority 2014, dated 2017).
